Assay results reported in ChEMBL document CHEMBL4813933, “Discovery of Thanafactin A, a Linear, Proline-Containing Octalipopeptide from Pseudomonas sp. SH-C52, Motivated by Genome Mining” (J Nat Prod, 2021).
The source made the active and inactive calls. No cut-off for these calls is given here.

Experiments:
[1] = molecular target: T1, Cathepsin K (Homo sapiens) (UniProt P43235); experiment: Inhibition of human cathepsin K at 10 uM using Z-Leu-Arg-AMC as substrate incubated for 60 mins by fluorometric assay
T1 sequence (whole entry): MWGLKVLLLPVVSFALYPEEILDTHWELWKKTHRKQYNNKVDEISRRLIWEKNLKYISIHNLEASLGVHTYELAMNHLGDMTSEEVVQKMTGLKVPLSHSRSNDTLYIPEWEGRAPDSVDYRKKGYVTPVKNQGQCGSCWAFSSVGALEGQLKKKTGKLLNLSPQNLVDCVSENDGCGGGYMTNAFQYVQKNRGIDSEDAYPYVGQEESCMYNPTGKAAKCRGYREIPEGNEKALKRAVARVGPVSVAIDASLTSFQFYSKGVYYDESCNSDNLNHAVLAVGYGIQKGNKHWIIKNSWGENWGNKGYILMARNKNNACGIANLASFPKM

[2] = test system: Chromobacterium violaceum; experiment: Inhibition of quorum sensing system in Chromobacterium violaceum CV026 assessed as reduction in swarming motility at 1 mg/ml measured after 1 hr
Staphylococcus aureus = experiment: Inhibition of quorum sensing system in Staphylococcus aureus PC322 assessed as reduction in swarming motility at 1 mg/ml measured after 1 hr

inhibition [1]: inactive
inhibition [2]: inactive
inhibition (Staphylococcus aureus): inactive
SMILES: CCCCCCC[C@@H](O)CC(=O)N[C@@H](C(=O)N[C@H](C)C(=O)N[C@H](CCC(N)=O)C(=O)N[C@@H](C)C(=O)N[C@@H](C(=O)N[C@@H](C)C(=O)N1CCC[C@H]1C(=O)N[C@H](C(=O)O)[C@@H](C)O)C(C)C)C(C)C
